Experimental findings from patent publication US20230115176A1 (Ra Pharmaceuticals, Inc., priority 2019, published 2023) are described below.

Where two headings read alike, the source gives them in different places.

In experiment [1] the target is T1, Human C5 (Homo sapiens, UniProt P01031).
T1 construct: purchased Complement Technology
The experiment is described as follows: Surface plasmon resonance (SPR), compounds on immobilized human C5 (Example 2, Table 5). The conditions noted are these: lowest value where a range of compound concentrations were analyzed. The class given is binding. For orientation: In SPR one partner is held on a chip, and binding of the other changes the refractive index at the surface.

The target in experiment [2] is T1, Human C5. Briefly: Surface plasmon resonance (SPR), immobilized human C5 (Example 9, Table 18). It counts as binding. To be noted: immobilized human C5, equilibrium dissociation constant; read-out: SPR C5 EQ KD. The text has this: Morrison and Boyd in “Organic Chemistry”, 6th edition, Prentice Hall (1992)] and validated for proper structure by mass spectrometry.

Experiment [3] deals with purified human C5 (Homo sapiens, UniProt P01031). The experiment is described as follows: Red blood cell (RBC) hemolysis assay, optical, absorbance 412 nm (Example 10, Table 19). It counts as cell-based. To be noted: antibody-sensitized sheep erythrocytes, […] human C5 depleted sera.
Sequence of purified human C5 (P01031 19-1676): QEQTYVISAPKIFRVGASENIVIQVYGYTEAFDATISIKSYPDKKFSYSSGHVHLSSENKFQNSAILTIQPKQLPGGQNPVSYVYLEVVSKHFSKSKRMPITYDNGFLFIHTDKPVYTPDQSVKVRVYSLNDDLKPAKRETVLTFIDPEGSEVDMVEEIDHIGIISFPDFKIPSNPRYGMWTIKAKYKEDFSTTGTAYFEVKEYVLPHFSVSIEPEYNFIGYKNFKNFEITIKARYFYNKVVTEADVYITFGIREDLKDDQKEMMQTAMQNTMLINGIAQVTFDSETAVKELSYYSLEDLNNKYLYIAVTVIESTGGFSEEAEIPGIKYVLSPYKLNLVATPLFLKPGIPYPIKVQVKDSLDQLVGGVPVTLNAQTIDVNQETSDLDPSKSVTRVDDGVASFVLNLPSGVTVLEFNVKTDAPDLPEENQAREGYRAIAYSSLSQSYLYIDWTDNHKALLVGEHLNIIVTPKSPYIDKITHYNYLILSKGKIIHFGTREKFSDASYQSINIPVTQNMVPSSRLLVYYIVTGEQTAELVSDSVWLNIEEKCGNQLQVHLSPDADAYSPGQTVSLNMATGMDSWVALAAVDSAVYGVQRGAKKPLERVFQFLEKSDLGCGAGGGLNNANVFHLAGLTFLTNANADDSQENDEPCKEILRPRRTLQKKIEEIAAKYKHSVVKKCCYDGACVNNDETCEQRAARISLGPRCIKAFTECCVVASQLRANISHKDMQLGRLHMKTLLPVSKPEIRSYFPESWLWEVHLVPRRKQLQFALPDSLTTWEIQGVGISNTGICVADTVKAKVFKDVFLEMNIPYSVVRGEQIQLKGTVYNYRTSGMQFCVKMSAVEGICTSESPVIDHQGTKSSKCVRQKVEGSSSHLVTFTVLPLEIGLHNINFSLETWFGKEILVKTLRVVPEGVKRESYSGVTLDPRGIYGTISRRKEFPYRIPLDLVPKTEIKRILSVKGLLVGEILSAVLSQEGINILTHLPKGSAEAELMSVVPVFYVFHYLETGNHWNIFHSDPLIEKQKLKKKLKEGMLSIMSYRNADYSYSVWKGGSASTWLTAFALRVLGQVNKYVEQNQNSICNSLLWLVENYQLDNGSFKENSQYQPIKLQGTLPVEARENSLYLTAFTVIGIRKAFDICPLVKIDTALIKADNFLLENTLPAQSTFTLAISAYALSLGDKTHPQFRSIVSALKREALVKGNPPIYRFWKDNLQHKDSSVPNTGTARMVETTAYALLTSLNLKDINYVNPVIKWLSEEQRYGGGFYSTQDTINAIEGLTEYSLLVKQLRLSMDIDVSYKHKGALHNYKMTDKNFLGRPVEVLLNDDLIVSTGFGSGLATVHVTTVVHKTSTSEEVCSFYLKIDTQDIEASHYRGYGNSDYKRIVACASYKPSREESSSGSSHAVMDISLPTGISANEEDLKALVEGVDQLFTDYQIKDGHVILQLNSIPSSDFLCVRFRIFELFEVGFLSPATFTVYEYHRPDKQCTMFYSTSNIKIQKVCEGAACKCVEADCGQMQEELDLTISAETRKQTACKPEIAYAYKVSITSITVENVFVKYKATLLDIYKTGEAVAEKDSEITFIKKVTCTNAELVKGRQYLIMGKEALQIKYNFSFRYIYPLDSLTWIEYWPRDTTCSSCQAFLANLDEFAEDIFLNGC
[4] abbreviates: 0.5 nM purified human C5, absorbance 412 nm, read-out: RBC Hemolysis IC50.
Setting [5] is: 0.5 nM human C5, read-out: IC50.

T1 sequence (P01031 19-1676): as above

`COc1ccc(NC(=O)N[C@@H](CO)c2ccccc2)cc1OCc1ccncc1` [SM0098]: the Kd (as a rule, the free concentration of one partner at which half of the binding sites on the other are occupied at equilibrium, for simple one-to-one binding) in experiment [1] turned out to be 3800 nM.
`COC[C@H](NC(=O)Nc1ccc(OC)c(OCCCC(C)C)c1)c1ccccc1` [SM0120] showed a Kd in experiment [1] of 9500 nM.
Regarding `COc1ccc(NC(=O)NC2CCCCC2O)cc1OCCCC(C)C` (stereo not shown) [SM0097], the Kd in experiment [1] is 2200 nM.
Still for that read-out and setting: as for `COc1ccc(NC(=O)N[C@@H](C)c2ccccc2)cc1OCC(C)(C)N(C)C` [SM0107], the figure is 3200 nM; as for `CCCCCCOc1ccc(NC(=O)N[C@@H](CO)c2ccccc2)cc1` [SM0112], 5500 nM; as for `COc1ccc(NC(=O)N[C@H]2c3ccccc3C[C@@H]2O)cc1OCCCC(C)C` [SM0103], 1800 nM.
With `COc1ccc(NC(=O)N[C@H](CCO)c2ccccc2)cc1OCCCC(C)C` [SM0118], the Kd in experiment [1] is 8100 nM.
The same measure, in the same setting: next, `COc1ccc(NC(=O)N[C@@H](CO)c2ccccc2)cc1OCCCC#N` [SM0119]: 830 nM; `COc1ccc(NC(=O)NCCc2ccccc2)cc1OCCCC(C)C` [SM0117]: 7600 nM.
In experiment [1], `COc1ccc(NC(=O)NC(CN(C)C)c2ccccc2)cc1OCCCC(C)C` (stereo not shown) [SM0121] yielded a Kd of 9500 nM.
In turn, `CCCCN(C)C(=O)c1cccc(NC(=O)N[C@@H](CO)c2ccccc2)c1` [SM0116, N-butyl-3-[[(1R)-2-hydroxy-1-phenyl-ethyl]carbamoylamino]-N-methyl-benzamide] came in with a Kd in experiment [1] of 690 nM.
Turning to `COc1ccc(NC(=O)N[C@@H](CO)c2ccccc2)cc1OCCC1CC1` [SM0101], binding in experiment [1] was characterised by a dissociation constant (Kd) of 150 nM.
On the same count and under the same terms, next, `COc1ccc(NC(=O)N[C@@H](CO)c2ccccc2)cc1OCCN(C)C` [SM0105, 1-[3-[2-(dimethylamino)ethoxy]-4-methoxy-phenyl]-3-[(1R)-2-hydroxy-1-phenyl-ethyl]urea]: 2600 nM; `COc1ccc(NC(=O)N[C@@H](CO)c2ccccc2)cc1OCc1cncnc1` [SM0114, 1-[(1R)-2-hydroxy-1-phenyl-ethyl]-3-[4-methoxy-3-(pyrimidin-5-ylmethoxy)phenyl] urea]: 6400 nM; `CCCCn1ncc2ccc(NC(=O)N[C@@H](CO)c3ccccc3)cc21` [SM0096, 1-(1-butylindazol-6-yl)-3-[(1R)-2-hydroxy-1-phenyl-ethyl]urea]: 2100 nM.
Turning to `COc1ccc(NC(=O)N[C@@H](CO)c2ccccc2)cc1OCCN1CCC(O)CC1` [SM0094], in experiment [1], binding was characterised by a dissociation constant (Kd) of 380 nM.
In experiment [1], `COc1ccc(NC(=O)N[C@@H](CO)C(C)(C)C)cc1OCCCC(C)C` [SM0091] had a Kd of 990 nM.
In experiment [1], `COc1ccc(NC(=O)NCC2CCC(F)(F)CC2)cc1OCCCC(C)C` [SM0111] showed a Kd of 4700 nM.
The compound `COc1ccc(NC(=O)N(C)CCO)cc1OCCCC(C)C` [SM0109] gave a Kd in experiment [1] of 3800 nM.
For the compound `O=C(Nc1ccc2c(c1)OC(F)(F)O2)N[C@@H](CO)c1ccccc1` [SM0099], in experiment [1], binding was characterised by a dissociation constant (Kd) of 5700 nM.
As to `CNC(=O)[C@H](NC(=O)Nc1ccc(OC)c(OCCCC(C)C)c1)c1ccccc1` [SM0093], in experiment [1], the Kd worked out at 240 nM.
As for `COc1ccc(NC(=O)NC(CO)Cc2ccccc2)cc1OCCCC(C)C` (stereo not shown) [SM0092], the Kd in experiment [1] worked out at 540 nM.
`COc1ccc(NC(=O)N[C@@H](CO)c2ccccc2)cc1OCc1ccccn1` [SM0095]: binding in experiment [1] was characterised by a dissociation constant (Kd) of 1600 nM.
On the same count and under the same terms, next, `COc1ccc(NC(=O)N[C@@H](C(N)=O)c2ccccc2)cc1OCCCC(C)C` [SM0102]: 1700 nM; `COc1ccc(NC(=O)NCc2ccc(S(C)(=O)=O)cc2)cc1OCCCC(C)C` [SM0113]: 601 nM.
For the compound `COc1ccc(NC(=O)NCc2cccc3[nH]ccc23)cc1OCCCC(C)C` [Compound C5INH-0537], the Kd in experiment [2] came out at 81 nM. Moreover, the IC50 (commonly the concentration needed to halve the response being measured) in experiment [3] (setting [4]) is 138 nM.
For `COc1ccc(NC(=O)NC(CO)c2cccc(OC)c2O)cc1OCCCC(C)C` (stereo not shown) [Compound C5INH-0486], the Kd in experiment [2] came out at 25 nM. In addition, the IC50 in experiment [3] (setting [5]) was 3 nM.
Turning to `CC(C)CCCOc1cc(NC(=O)N[C@@H](CO)c2ccccc2)ccc1N` [Compound C5INH-0431], in experiment [2], the Kd amounted to 1160 nM. For the same compound, in experiment [3] (setting [4]), the IC50 is 3790 nM.
For the compound `COc1ccc(NC(=O)NCc2ccc(O)cc2O)cc1OCCCC(C)C` [Compound C5INH-0311], the Kd in experiment [2] amounted to 20 nM. The half-maximal inhibitory concentration (IC50) in experiment [3] (setting [4]) came to 27 nM.
As to `COc1ccc(NC(=O)NC(CO)c2cccnc2OC)cc1OCCCC(C)C` (stereo not shown) [Compound C5INH-0316], the Kd in experiment [2] amounted to 58 nM. For the same compound, the IC50 in experiment [3] (setting [4]) was found to be 60 nM.
Regarding `COc1ccc(NC(=O)NCc2ccnc(OCCN)c2)cc1OCCCC(C)C` [Compound C5INH-0382], the Kd in experiment [2] was determined as 181 nM. In addition, the IC50 in experiment [3] (setting [4]) stood at 312 nM.
On to `COc1ccc(NC(=O)NC(CO)c2cc(NC(C)=O)ccc2OC)cc1OCCCC(C)C` (stereo not shown) [Compound C5INH-0489], for which, in experiment [2], the dissociation constant (Kd) was 364 nM. Also, the IC50 in experiment [3] (setting [4]) came to 177 nM.
On to `CCS(=O)(=O)NCCn1ccc2c(CNC(=O)Nc3ccc(OC)c(OCCCC(C)C)c3)ccnc21` [Compound C5INH-0410], for which the Kd in experiment [2] was determined as 840 nM. The IC50 in experiment [3] (setting [4]) was 568 nM.
Take `COc1ccc(NC(=O)NCc2ccnc3c2ccn3CCCN(C)C)cc1OCCCC(C)C` [Compound C5INH-0491]: in experiment [2], the Kd is 62 nM. In experiment [3] (setting [4]), the IC50 was 83.5 nM.
Turning to `CNc1ccc(CNC(=O)Nc2ccc(OC)c(OCCCC(C)C)c2)cc1` [Compound C5INH-0443], the Kd in experiment [2] came out at 300 nM. Moreover, in experiment [3] (setting [4]), the IC50 is 1990 nM.
Regarding `COc1ccc(NC(=O)N[C@@H](CO)c2ccccc2)cc1OCCC1CCCCC1` [Compound C5INH-0350], the Kd in experiment [2] is 160 nM. In addition, the IC50 in experiment [3] (setting [4]) amounted to 653 nM.
For `COc1ccc(NC(=O)NC(CO)c2cccc(CN)c2)cc1OCCCC(C)C` (stereo not shown) [Compound C5INH-0373], in that order: 293 nM and 1520 nM.
Consider `COc1ccc(NC(=O)N[C@@H](CO)c2ccccc2)cc1C(F)CCCC(C)C` (stereo partly shown) [Compound C5INH-0432], for which the Kd in experiment [2] was found to be 530 nM. The IC50 in experiment [3] (setting [4]) was determined as 417 nM.
For `COc1ccc(NC(=O)NCc2ccc3c(ccn3CC(=O)N(C)C)c2)cc1OCCCC(C)C` [Compound C5INH-0447], the Kd in experiment [2] is 204 nM. The IC50 in experiment [3] (setting [4]) worked out at 536 nM.
Taken in the same sequence, the figures for `COc1ccc(NC(=O)NC(CO)c2cccc3c2ccn3C)cc1OCCCC(C)C` (stereo not shown) [Compound C5INH-0463] were 280 nM and 808 nM.
Consider `COc1ccc(NC(=O)NCc2c(F)cccc2OC)cc1OCCCC(C)C` [Compound C5INH-0326], for which, in experiment [2], the Kd is 260 nM. In experiment [3] (setting [4]), the IC50 worked out at 784 nM.
Turning to `COc1ccc(NC(=O)NCc2ccc3c(c2)OCO3)cc1OCCCC(C)C` [Compound C5INH-0330], in experiment [2], the Kd was 2900 nM. For the same compound, the IC50 in experiment [3] (setting [4]) amounted to 2660 nM.
On to `COc1ccc(NC(=O)N2CCCC2c2ccc(N(C)C)cc2)cc1OCCCC(C)C` (stereo not shown) [Compound C5INH-0396], for which the Kd in experiment [2] was 1400 nM. Also, the IC50 in experiment [3] (setting [4]) came to 2330 nM.
As to `COc1ccc(NC(=O)NCc2cccc(F)c2O)cc1OCCCC(C)C` [Compound C5INH-0472], in experiment [2], the Kd was 82 nM. The IC50 in experiment [3] (setting [5]) was below 20 nM; in experiment [3] (setting [4]), 16 nM.
As to `COc1ccc(CNC(=O)Nc2ccc(OC)c(OCCCC(C)C)c2)c(O)c1` [Compound C5INH-0485], the Kd in experiment [2] came to 330 nM. Besides, the IC50 in experiment [3] (setting [4]) turned out to be 46.9 nM.
For the compound `COc1ccc(NC(=O)NCc2ccccc2OCCC2CCOC2)cc1OCCCC(C)C` (stereo not shown) [Compound C5INH-0338], the Kd in experiment [2] was found to be 195 nM. Moreover, in experiment [3] (setting [4]), the IC50 stood at 4370 nM.
With `COc1ccc(NC(=O)NCc2cc(F)ccc2O)cc1OCCCC(C)C` [Compound C5INH-0473], the Kd in experiment [2] was 69 nM. The IC50 in experiment [3] (setting [4]) worked out at 21.5 nM.
